{"source": "paper PMC11488110", "about": "(Theranostics, 2024)", "test_system": "APP/PS1 mice", "assay": "APP/PS1 transgenic mouse model of AD", "assay_type": "in vivo", "conditions": "30 mg/kg/day p.o. 10 days", "method": "All mice and rats were housed in a temperature- and humidity-controlled environment with a 12 h light/dark cycle and ad libitum access to food and water. All procedures were performed in accordance with the National Institutes of Health Guide for the Care and Use of Laboratory Animals and approved by the Institutional Animal Care and Use Committee of Korea Institute of Science and Technology (KIST-IACUC-2022-020-1). For the pharmacokinetics study, Sprague-Dawley rats were purchased from Koatech (South Korea) and maintained in a specific pathogen-free facility (Laboratory Animal Center, Daegu-Gyeongbuk Medical Innovation Foundation). For the LPS-induced neuroinflammation model or scopolamine-induced AD model, male C57BL/6N mice were obtained from DBL (South Korea). APP/PS1 (APPswe/PSEN1dE9) transgenic mice from the Jackson Laboratory (USA; stock number 004462) were maintained as hemizygotes on the C57BL/6; C3H genetic background at the Research Animal Resources Center of KIST. 10-week-old C57BL/6N and 12-month-old APP/PS1 were used in behavioral experiments with sex- and age-matched controls.\nFor the neuroinflammation model, C57BL/6N mice were intraperitoneally injected daily with 0.3 mg/kg LPS (Sigma-Aldrich, L2880) dissolved in saline (0.9% sodium chloride), for 6 consecutive days. In a non-genetic AD model, we induced acute memory deficits in C57BL/6N mice by intraperitoneal injection with 1 mg/kg of scopolamine hydrobromide (Sigma-Aldrich, S0929) dissolved in saline, 30 min before the behavioral tests. At the end of the experimental period, mice were deeply anesthetized with 2% avertin (500 mg/kg, i.p.) and transcardially perfused with saline. Brains were collected from each mouse, and the hippocampus and cortex were isolated and stored at -80 °C for biochemical analysis. Brain hemispheres were postfixed in 4% paraformaldehyde overnight at 4 °C, then placed in 30% sucrose solution for 48 h at 4 °C for cryoprotection and used for histological analysis.\nThe Y-maze test was used to evaluate the spatial learning and memory performance of mice. The Y-maze apparatus consisted of three identical arms disposed at a 120° angle from each other (41 cm long and 7 cm wide with 15 cm high walls). Mice were placed at the end of one arm and allowed to move freely in the maze for 10 min. The arm entries were manually recorded. Spontaneous alternation was defined as consecutive entries into three different arms and the percentage of alternation was calculated based on the following equation: alternation (%) = number of alternations/(total arm entries - 2) × 100.\nFixed mouse brains were embedded in an optimal cutting temperature compound (Leica, 3801480) and serially sectioned at 30 μm in a cryostat (Thermo Fisher Scientific, HM525 NX). Coronal hippocampal sections were stored in a storage solution (30% glycerol, 30% ethylene glycol, and 30% 0.2 M sodium phosphate buffer, pH 7.2) at 4 °C until use. After washing three times with PBS, the sections were blocked for 1 h with blocking buffer (0.3% Triton X-100 and 4% normal donkey serum in 0.1 M PBS) at room temperature, followed by incubation with primary antibodies in blocking buffer overnight at 4 °C. After washing with PBS, the sections were incubated with corresponding fluorescent secondary antibodies (Jackson ImmunoResearch, Alexa Fluor) for 1 h at room temperature and washed three times with PBS. Nuclei were counterstained with 4′,6-diamidino-2-phenylindole (DAPI; Invitrogen) during the second washing step. Sections were mounted with fluorescent mounting medium (Dako). Fluorescent images were acquired with the ImageXpress Pico (Molecular Devices; 20× magnification) or LSM 800 confocal microscope (Carl Zeiss; 40× magnification). Primary antibodies used are described in Table S6.\nZ-stack projected images (20 μm thickness with a step size of 2 μm or 4 μm) were analyzed using the ImageJ software (NIH). To quantify glial reactivity, the mean fluorescence intensity of GFAP or IBA1 was measured. […]"}
{"smiles": "Cc1cc(SCc2[se]c(-c3ccc(C(F)(F)F)cc3)nc2C)ccc1OCC(=O)O", "note": "[Compound 5a, {2-Methyl-4-[4-methyl-2-(4-trifluoromethyl-phenyl)-selenazol-5-yl-methylsulfanyl]-phenoxy}-acetic acid]", "values": [{"measurement": "Astrocytic hypertrophy (Sholl analysis)", "value": "significantly suppressed"}, {"measurement": "BACE1 levels in cortical homogenates", "value": "significantly diminished"}, {"measurement": "GFAP and IBA1 immunoreactivity, dentate gyrus", "value": "significantly inhibited"}, {"measurement": "Gfap mRNA in hippocampus homogenates", "value": "reduced levels"}, {"measurement": "Number and area of thioflavin-S Aβ plaques, cortex and hippocampus", "value": "significant reduction in the number and area of Aβ plaques"}, {"measurement": "Number of microglia per plaque", "value": "significant increase"}, {"measurement": "Overall tau hyperphosphorylation in the brain", "value": "inhibiting overall tau hyperphosphorylation"}, {"measurement": "Phagolysosome area within plaque-associated microglia and internalized Aβ area", "value": "increased the phagolysosome area"}, {"measurement": "Plaque-associated BACE1 accumulation, hippocampus", "value": "significantly reduced"}, {"measurement": "Y-maze spontaneous alternation", "value": "prevented the decrease in alternation percentage"}, {"measurement": "Y-maze total number of arm entries", "value": "without inducing any changes"}, {"measurement": "AT8-positive phosphorylated tau around Aβ plaques", "setting": "not significant", "value": "tend to decrease"}]}
